The results in this text go back to patent US20200029564A1, “NOVEL 5-SUBSTITUTED IMIDAZOLYLMETHYLOXIRANE DERIVATIVES” (Bayer CropScience Aktiengesellschaft, priority 2016, published 2020).

Molecules are shown by their SMILES.

One data set has as its system Uromyces appendiculatus. The data set can be described thus: In vivo preventive test on Uromyces appendiculatus (bean rust). The following applies: 264 h, 500 ppm of active ingredient, preventive spray on young bean plants, evaluated 11 days after inoculation, read-out: efficacy. On the procedure: (§1) Example D: In Vivo Preventive Test on Uromyces appendiculatus (Bean Rust) [table] The active ingredients are made soluble and homogenized in a mixture of Dimethyl sulfoxide/Acetone/Tween® 80 and then diluted in water to the desired concentration. The young plants of bean are treated by spraying the active ingredient prepared as described above. Control plants are treated only with an aqueous solution of Acetone/Dimethyl sulfoxide/Tween® 80. After 24 hours, the plants are contaminated by spraying the leaves with an aqueous suspension of Uromyces appendiculatus spores. The contaminated bean plants are incubated for 24 hours at 20° C. and at 100% relative humidity and then for 10 days at 20° C. and at 70-80% relative humidity. The test is evaluated 11 days after the inoculation. 0% means an efficacy which corresponds to that of the control plants while an efficacy of 100% means that no disease is observed.

For another data set, the system named is Sphaerotheca fuliginea. The data set can be described thus: In vivo preventive test on Sphaerotheca fuliginea (powdery mildew on cucurbits). The following applies: Podosphaera fuliginea, 360 h; 500 ppm of active ingredient; preventive spray on young gherkin plants; evaluated 15 days after inoculation; read-out: efficacy. The protocol:
Example C: In Vivo Preventive Test on Sphaerotheca fuliginea (Powdery Mildew on Cucurbits) [table] The active ingredients are made soluble and homogenized in a mixture of Dimethyl sulfoxide/Acetone/Tween® 80 and then diluted in water to the desired concentration. The young plants of gherkin are treated by spraying the active ingredient prepared as described above. Control plants are treated only with an aqueous solution of Acetone/Dimethyl sulfoxide/Tween® 80. After 24 hours, the plants are contaminated by spraying the leaves with an aqueous suspension of Sphaerotheca fuidiginea spores. The contaminated gherkin plants are incubated for 72 hours at 18° C. and at 100% relative humidity and then for 12 days at 20° C. and at 70-80% relative humidity. The test is evaluated 15 days after the inoculation. 0% means an efficacy which corresponds to that of the control plants while an efficacy of 100% means that no disease is observed.

The test system of another data set is Septoria tritici. The data set can be described thus: In vivo preventive test on Septoria tritici (leaf spot on wheat). The following applies: Zymoseptoria tritici, 576 h; 500 ppm of active ingredient; preventive spray on young wheat plants; evaluated 24 days after inoculation; read-out: efficacy. The protocol: Example B: In Vivo Preventive Test on Septoria tritici (Leaf Spot on Wheat) [table] The active ingredients are made soluble and homogenized in a mixture of Dimethyl sulfoxide/Acetone/Tween® 80 and then diluted in water to the desired concentration. The young plants of wheat are treated by spraying the active ingredient prepared as described above. Control plants are treated only with an aqueous solution of Acetone/Dimethyl sulfoxide/Tween® 80. After 24 hours, the plants are contaminated by spraying the leaves with an aqueous suspension of Septoria tritici spores. The contaminated wheat plants are incubated for 72 hours at 18° C. and at 100% relative humidity and then for 21 days at 20° C. and at 90% relative humidity. The test is evaluated 24 days after the inoculation. 0% means an efficacy which corresponds to that of the control plants while an efficacy of 100% means that no disease is observed.

Data set [1] is described as follows: LogP by HPLC on reversed phase columns (EEC directive 79/831 Annex V.A8). Conditions: method [a]: LC-UV, acidic range, 0.1% formic acid in water and acetonitrile as eluent; for chromatographic logP: reversed phase HPLC column. In kind it is physicochemical. On the procedure:
[table] If more than one Log P value is available within the same method, all the values are given and separated by “+”. Calibration was done with straight-chain alkan2-ones (with 3 to 16 carbon atoms) with known Log P values (measurement of Log P values using retention times with linear interpolation between successive alkanones). Lambda-max-values were determined using UV-spectra from 200 nm to 400 nm and the peak values of the chromatographic signals.

The test system of another data set is Puccinia recondita. Nature of the data set: In vivo preventive test on Puccinia recondita (brown rust on wheat). The following applies: 264 h, 500 ppm of active ingredient, preventive spray on young wheat plants, evaluated 11 days after inoculation, read-out: efficacy. The protocol: as §1, with “A:” for “D:”, “Puccinia recondita (Brown Rust on Wheat)” for “Uromyces appendiculatus (Bean Rust)”, “wheat” for “bean”, “Puccinia recondita” for “Uromyces appendiculatus”

For data set [2], the system named is Blumeria graminis fsp. hordei. The data set can be described thus: In vivo preventive Blumeria test (barley). The following applies: 168 h, 500 ppm of active ingredient, preventive spray on young barley plants, evaluated 7 days after inoculation, read-out: efficacy. On the procedure:
Example F: In Vivo Preventive Blumeria Test (Barley) [table] To produce a suitable preparation of active compound, 1 part by weight of active compound or active compound combination is mixed with the stated amounts of solvent and emulsifier, and the concentrate is diluted with water to the desired concentration. To test for preventive activity, young plants are sprayed with the preparation of active compound or active compound combination at the stated rate of application. After the spray coating has been dried, the plants are dusted with spores of Blumeria graminis fsp. hordei. The plants are placed in the greenhouse at a temperature of approximately 18° C. and a relative atmospheric humidity of approximately 80% to promote the development of mildew pustules. The test is evaluated 7 days after the inoculation. 0% means an efficacy which corresponds to that of the untreated control, while an efficacy of 100% means that no disease is observed.

In the case of `N#Cc1cncn1CC1(c2ccc(F)cc2Cl)OC1c1ccccc1Cl` (stereo not drawn) [I-29], the pest or weed control at 500 ppm (with Uromyces appendiculatus; in the data set on Sphaerotheca fuliginea; with Septoria tritici; with Puccinia recondita; in data set [2]) was 90 to 100% in each case. In data set [1], the chromatographic logP was found to be 3.71.

In the case of `N#Cc1cncn1CC1(c2ccc(Cl)cc2)OC1c1ccccc1F` (stereo not drawn) [I-10], the pest or weed control at 500 ppm (with Uromyces appendiculatus; in the data set with Sphaerotheca fuliginea; in the data set on Septoria tritici; in the data set on Puccinia recondita; in data set [2]) was 90 to 100% throughout. The compound also showed a chromatographic logP in data set [1] of 3.41.

As to `Fc1ccc(C2(Cn3cncc3F)OC2c2ccccc2Br)cc1` (stereo not drawn) [I-14], the pest or weed control at 500 ppm (with Uromyces appendiculatus; in the data set with Sphaerotheca fuliginea; with Septoria tritici; in data set [2]) was 90 to 100% in each case. Also, the chromatographic logP in data set [1] was found to be 2.66.

Take `N#Cc1cncn1CC1(c2ccc(F)cc2)OC1c1ccccc1F` (stereo not drawn) [I-12]: the pest or weed control at 500 ppm (in the data set on Uromyces appendiculatus; in the data set on Sphaerotheca fuliginea; with Septoria tritici; in the data set on Puccinia recondita; in data set [2]) was 90 to 100% in each case. In data set [1], this compound displayed a chromatographic logP of 3.06.

In the case of `N#Cc1cncn1CC1(c2ccc(C(F)(F)F)cc2)OC1c1ccccc1Cl` (stereo not drawn) [I-05], the pest or weed control at 500 ppm (with Uromyces appendiculatus; in the data set with Sphaerotheca fuliginea; with Septoria tritici; in the data set on Puccinia recondita; in data set [2]) was 90 to 100% in each case. In data set [1], this compound gave a chromatographic logP of 3.96.

In the case of `N#Cc1cncn1CC1(c2ccc(F)cc2)OC1c1ccc(Cl)cc1` (stereo not drawn) [I-24], the pest or weed control at 500 ppm with Uromyces appendiculatus, in the data set with Sphaerotheca fuliginea, with Septoria tritici and in the data set on Puccinia recondita was 90 to 100% in each case. In addition, the chromatographic logP in data set [1] stood at 3.37.

For `N#Cc1cncn1CC1(c2ccc(Cl)cc2)OC1c1ccccc1Br` (stereo not drawn) [I-11], the pest or weed control at 500 ppm with Uromyces appendiculatus was in the range of 90 to 100%; in the data set on Septoria tritici it was 90 to 100%; in the data set with Puccinia recondita it was 90 to 100%; in data set [2], 80 to 89%. In data set [1], this compound returned a chromatographic logP of 3.83.

Take `N#Cc1cncn1CC1(c2ccc(F)cc2)OC1c1ccccc1Br` (stereo not drawn) [I-13]: the pest or weed control at 500 ppm (in the data set with Uromyces appendiculatus; in the data set with Septoria tritici; in the data set on Puccinia recondita; in data set [2]) was 90 to 100% each time. The compound also yielded a chromatographic logP in data set [1] of 3.44.

For the compound `N#Cc1cncn1CC1(c2ccc(F)cc2)OC1c1cccc(Cl)c1` (stereo not drawn) [I-21], the pest or weed control at 500 ppm in the data set on Uromyces appendiculatus fell in the range of 90 to 100%; in the data set with Sphaerotheca fuliginea, 90 to 100%; with Septoria tritici, 80 to 89%; in the data set with Puccinia recondita, 90 to 100%. The compound further displayed a chromatographic logP in data set [1] of 3.35.

In the case of `N#Cc1cncn1C[C@]1(c2ccc(F)cc2)O[C@@H]1c1ccccc1Cl` (relative stereo) [I-04, cis 3-[[3-(2-chlorophenyl)-2-(4-fluorophenyl)oxiran-2-yl]methyl]imidazole-4-carbonitrile], the pest or weed control at 500 ppm with Uromyces appendiculatus was 80 to 89%; with Sphaerotheca fuliginea, 90 to 100%; with Septoria tritici it was 80 to 89%. In data set [1], the chromatographic logP stood at 2.98.

As for `N#Cc1cncn1CC1(c2ccc(F)cc2F)OC1c1ccccc1Cl` (stereo not drawn) [I-09], the pest or weed control at 500 ppm in the data set on Uromyces appendiculatus, with Sphaerotheca fuliginea and in the data set with Septoria tritici was 90 to 100% throughout. For the same compound, the chromatographic logP in data set [1] worked out at 3.06.

Regarding `N#Cc1cncn1CC1(c2ccc(F)cc2)OC1c1cccc(Br)c1` (stereo not drawn) [I-23], the pest or weed control at 500 ppm with Uromyces appendiculatus, with Sphaerotheca fuliginea, in the data set on Septoria tritici and with Puccinia recondita was 90 to 100% in each case. In addition, in data set [1], the chromatographic logP came out at 3.44.

With `N#Cc1cncn1CC1(c2ccc(Br)cc2)OC1c1ccccc1Cl` (stereo not drawn) [I-08], the pest or weed control at 500 ppm with Uromyces appendiculatus, in the data set on Sphaerotheca fuliginea and with Septoria tritici was 90 to 100% each time. In data set [1], this compound yielded a chromatographic logP of 3.85.

With `N#Cc1cncn1CC1(c2ccc(F)cc2)OC1c1cccnc1Cl` (stereo not drawn) [I-17], the pest or weed control at 500 ppm in the data set on Uromyces appendiculatus and in the data set with Septoria tritici was 90 to 100% each time. The LogP in data set [1] is 2.50 ^[a].

With `N#Cc1cncn1CC1(c2ccc(F)cc2)OC1c1cccnc1Cl` (stereo not drawn) [I-16], the pest or weed control at 500 ppm in the data set on Sphaerotheca fuliginea lay within 90 to 100%. In data set [1], this compound yielded a chromatographic logP of 2.2.

Take `COc1ccc(C2(Cn3cncc3C#N)OC2c2ccccc2Cl)cn1` (stereo not drawn) [I-19]: the pest or weed control at 500 ppm with Uromyces appendiculatus lay in the range of 80 to 89%; in the data set with Sphaerotheca fuliginea it was 90 to 100%; with Septoria tritici, 90 to 100%; in the data set with Puccinia recondita it was 90 to 100%. The same compound yielded a chromatographic logP in data set [1] of 2.86.

Consider `COc1ccc(C2(Cn3cncc3C#N)OC2c2ccccc2Cl)cc1` (stereo not drawn) [I-22], for which the pest or weed control at 500 ppm in the data set with Uromyces appendiculatus, in the data set on Sphaerotheca fuliginea, in the data set on Septoria tritici and with Puccinia recondita was 90 to 100% throughout. Besides, in data set [1], the chromatographic logP came to 3.26.

As for `N#Cc1cncn1CC1(c2ccc(F)cc2)OC1c1ccnc(Cl)c1` (stereo not drawn) [I-20], the pest or weed control at 500 ppm in the data set on Uromyces appendiculatus, with Sphaerotheca fuliginea, with Septoria tritici and in the data set with Puccinia recondita was 90 to 100% in each case. Besides, in data set [1], the chromatographic logP is 2.5.

Regarding `N#Cc1cncn1C[C@]1(c2ccc(F)cc2)O[C@H]1c1ccccc1Cl` (relative stereo) [I-03, trans 3-[[3-(2-chlorophenyl)-2-(4-fluorophenyl)oxiran-2-yl]methyl]imidazole-4-carbonitrile], the pest or weed control at 500 ppm (in the data set on Uromyces appendiculatus; in the data set on Sphaerotheca fuliginea; in the data set on Septoria tritici; in data set [2]) was 90 to 100% in each case. This compound showed a chromatographic logP in data set [1] of 3.33.

Regarding `Fc1ccc(C2(Cn3cncc3F)OC2c2cccnc2Cl)cc1` (stereo not drawn) [I-15], in the data set on Sphaerotheca fuliginea, the pest or weed control at 500 ppm fell in the range of 90 to 100%. In data set [1], this compound registered a chromatographic logP of 1.57.
